Test results taken from PubChem BioAssay (NCI).
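The compound was tested at five concentrations on cells cultured in 96-well plates, with a 48-hour exposure period. Definition used: TGI = concentration required for complete inhibition of growth.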 Where a SMILES comes first, the peptide text is derived from it. The star is where a group is joined. Boc = CC(C)(C)OC(=O)*

How the values were obtained:
Assay in all cases: DTP human tumour cell line panel, 48 h
[1] = tested on: MDA-MB-435
[2] = tested on: SK-MEL-28 melanoma
[3] = tested on: MCF7 breast
[4] = tested on: M14 melanoma
[5] = tested on: HOP-62 NSCLC
[6] = tested on: CCRF-CEM leukemia
[7] = tested on: MDA-MB-231 breast
[8] = tested on: UO-31 renal
[9] = tested on: SF-295 CNS
[10] = tested on: SK-MEL-2 melanoma
[11] = tested on: RPMI-8226 leukemia
[12] = tested on: SW-620 colon
[13] = tested on: T-47D breast
[14] = tested on: NCI-H226 lung
[15] = tested on: SK-MEL-5 melanoma
[16] = tested on: U251 CNS
[17] = tested on: ACHN renal
[18] = tested on: PC-3 prostate
[19] = tested on: NCI-H460 lung

SMILES	TGI [1]	TGI [2]	TGI [3]	TGI [4]	TGI [5]	TGI [6]	TGI [7]	TGI [8]	TGI [9]	TGI [10]	TGI [11]	TGI [12]	TGI [13]	TGI [14]	TGI [15]	TGI [16]	TGI [17]	TGI [18]	TGI [19]
CC(=O)OC1CCN(C(=O)c2ccccc2)CC1CC1(c2cc3ccccc3[nH]2)OCCO1 (stereo not drawn)	> 100 µM	> 100 µM	> 100 µM	> 100 µM	> 100 µM	> 100 µM	> 100 µM	> 100 µM	> 100 µM	> 100 µM	70.4 µM	> 100 µM	> 100 µM	> 100 µM	> 100 µM	> 100 µM	> 100 µM	> 100 µM	
COc1c(Cl)c2c(c(OC)c1OC)-c1ccc(OC)c(=O)c(Cl)c1C(NC(C)=O)CC2 (stereo not drawn)		> 100 µM		4.61 µM	> 27.2 µM	> 33.8 µM		> 100 µM	0.49 µM	7.87 µM	10.3 µM	> 100 µM		1.59 µM		1.15 µM	> 100 µM		1.34 µM
COc1cc(C2=NN(C)C(c3ccc([N+](=O)[O-])o3)C2)cc(OC)c1OC (stereo not drawn)		> 100 µM		> 100 µM	> 100 µM	72 µM		> 100 µM	> 100 µM	> 100 µM	31.8 µM	30.6 µM		> 100 µM	> 100 µM	> 100 µM	> 100 µM		> 100 µM
CC(=O)c1cccc(NC(=O)/C(=N\NC(C)(C)C)c2c(O)c3ccccc3oc2=O)c1		> 100 µM		> 100 µM	> 100 µM	> 100 µM		> 100 µM	> 100 µM	> 100 µM		> 100 µM		> 100 µM	> 100 µM		> 100 µM		> 100 µM
COC(=O)[C@@H]1CN(C(=O)c2ccccc2)C(=O)N1	> 100 µM	> 100 µM		> 100 µM	> 100 µM	> 100 µM	> 100 µM	> 100 µM	> 100 µM		> 100 µM	> 100 µM	> 100 µM	> 100 µM	> 100 µM	> 100 µM	> 100 µM	> 100 µM	> 100 µM
COC(=O)c1ccc(OCc2ccc3nc(OC)c(OC)nc3c2)cc1		> 100 µM		> 100 µM	> 100 µM	> 100 µM		> 100 µM	> 100 µM	> 100 µM	> 100 µM	> 100 µM		> 100 µM	> 100 µM	> 100 µM	> 100 µM		> 100 µM
C=CCCC(OCOCCOC)c1cc(C)c(O[Si](C)(C)C(C)(C)C)c(C)c1 (stereo not drawn)		64.7 µM		> 100 µM	35.2 µM	30.6 µM		23.9 µM	31.8 µM	30.8 µM	23.4 µM	33.2 µM		26.4 µM	24.3 µM	27.3 µM	26.7 µM		32.1 µM
Cc1ccc([N+](=O)[O-])c2c(NCCNC(=O)Cn3ccnc3[N+](=O)[O-])ccnc12	> 100 µM	> 100 µM	44.2 µM	> 100 µM	48.7 µM	> 100 µM	> 100 µM	> 100 µM	43.3 µM	> 100 µM	> 100 µM	> 100 µM	> 100 µM	88 µM	> 100 µM	> 100 µM	> 100 µM	> 100 µM	> 100 µM
CCN1CCC(O)(c2ccc(C)cc2)C(C(=O)c2ccc(C)cc2)C1 (stereo not drawn)		56 µM		> 57.8 µM	> 100 µM	56 µM		> 57.5 µM	> 100 µM	> 100 µM	41.5 µM	31.8 µM		> 100 µM	> 57.2 µM	> 83.9 µM	32.1 µM		> 81.1 µM
O=c1cc(-c2ccccc2)[nH]c2cc(F)c(F)cc12		> 100 µM	> 71.9 µM	> 100 µM	> 100 µM	> 100 µM	> 77.2 µM	> 100 µM	> 100 µM	> 75.1 µM	> 100 µM	> 100 µM		> 26.4 µM	18.7 µM	> 58.6 µM	> 35.5 µM	> 100 µM	> 100 µM
COc1ccc2c(c1)c(=O)c1ccccc1n2/C=C/C(=O)O		> 100 µM		> 100 µM	> 100 µM	> 67.8 µM		> 100 µM	> 100 µM	> 100 µM	> 100 µM	> 100 µM		> 100 µM	> 100 µM	> 100 µM	> 100 µM		> 100 µM
CC(NC(=O)C(NC(=O)OC(C)(C)C)C(C)C)C(=O)N1CCCC1C(=O)NCC(=O)NC(C(=O)NCC(=O)O)C(C)C (stereo not drawn) (Boc-VAPGVG-OH; configuration not given here)	> 100 µM	> 100 µM	> 100 µM	> 100 µM	> 100 µM	> 100 µM	> 100 µM	> 100 µM	> 100 µM	> 100 µM	> 100 µM	> 100 µM	> 100 µM			> 100 µM	> 100 µM	> 100 µM	> 100 µM
COc1cc(OC)cc(Oc2nc3ccccc3nc2C(=O)O)c1	> 100 µM	> 100 µM		> 100 µM	> 100 µM	> 100 µM	> 100 µM	> 100 µM	> 100 µM	> 100 µM	> 100 µM	> 100 µM	> 100 µM	> 100 µM	> 100 µM	> 100 µM	> 100 µM	> 100 µM	> 100 µM
CNC(=O)CN(CC(=O)NC)C(=O)NC		> 100 µM		> 100 µM	> 100 µM	> 100 µM		> 100 µM	> 100 µM	> 100 µM	> 100 µM	> 100 µM		> 100 µM	> 100 µM	> 100 µM	> 100 µM		
O=C1CCCCC1CN1CCCC1 (stereo not drawn)		> 100 µM		> 100 µM	> 100 µM	> 100 µM			> 100 µM	> 100 µM	> 100 µM	> 100 µM		> 100 µM	> 100 µM	> 100 µM	> 100 µM		> 100 µM
CC1=NN(c2ccccc2)C(=O)C1=C1SCCS1		> 100 µM		> 100 µM	> 100 µM	> 65.5 µM		> 100 µM	> 100 µM	> 100 µM	> 49.5 µM	> 53.8 µM		> 100 µM	> 100 µM	> 90.3 µM	> 100 µM		> 100 µM

SMILES	TGI [1]	TGI [2]	TGI [3]	TGI [4]	TGI [5]	TGI [6]	TGI [7]	TGI [8]	TGI [9]	TGI [10]	TGI [11]	TGI [12]	TGI [13]	TGI [14]	TGI [15]	TGI [16]	TGI [17]	TGI [18]	TGI [19]
CC1(C)COC(C23C4C5C2C2C3C4C52I)=N1 (stereo not drawn)		> 100 µM		> 100 µM	> 100 µM	> 100 µM		> 100 µM	> 100 µM		> 100 µM	> 100 µM		> 100 µM	> 100 µM	> 100 µM	> 100 µM		> 100 µM
O=S1(=O)OCCOS(=O)(=O)C1I		> 100 µM		> 100 µM	> 100 µM	> 100 µM		> 100 µM	> 100 µM	> 100 µM	> 100 µM	> 100 µM		> 100 µM	> 100 µM				
CC(C)CNC(=O)CCc1cccc2c1oc1c(CCN)cccc12	25.2 µM	23.8 µM	46.1 µM	30.5 µM	33.7 µM	17.6 µM	31.6 µM	25.2 µM	31.6 µM	36.7 µM		27.5 µM	37.1 µM	33.6 µM	27.2 µM	18.9 µM	25.8 µM	34.3 µM	36.9 µM
CC1=NN(c2cccc(Cl)c2)C2(SCC(=O)N2c2nc3ccccc3s2)/C1=C\c1ccc(Cl)cc1 (stereo not drawn)	43.1 µM	72.4 µM	87 µM	43.5 µM	35.3 µM	3.31 µM	72 µM	29.5 µM	42.7 µM	35.7 µM	39.5 µM	27.9 µM	> 100 µM	75.1 µM	30.8 µM	28.2 µM	46.4 µM	31.1 µM	33.3 µM
CCCN(CCCCC(NC(C)=O)C(=O)NCc1ccccc1)C(=O)N(C)N=O (stereo not drawn)		> 100 µM		> 100 µM	> 100 µM	> 100 µM		> 100 µM	> 100 µM	> 100 µM	> 100 µM	> 100 µM		> 100 µM	> 100 µM	> 100 µM	> 100 µM		> 100 µM
C/C(CC(=O)Nc1ccc(Cl)c(Cl)c1)=N/NC(=O)C[n+]1ccccc1		> 100 µM		> 100 µM	> 100 µM	> 100 µM		> 100 µM	> 100 µM	> 100 µM	> 100 µM			> 100 µM	> 100 µM	> 100 µM	> 100 µM		> 100 µM
COc1ccc(N2C(=O)C3c4[nH]c5ccc(OC)cc5c4C4CCC(C(C)(C)C)CC4C3C2=O)cc1 (stereo not drawn)		> 100 µM		> 100 µM	52.5 µM	> 100 µM		> 100 µM	32.8 µM	70.4 µM	> 100 µM	> 100 µM		> 100 µM	> 100 µM	44.8 µM	> 100 µM		> 100 µM
CN(C)c1ccc(-c2cc(=O)c3cc4c(cc3[nH]2)OCO4)cc1		> 100 µM		> 100 µM	> 100 µM	> 100 µM		> 100 µM	> 100 µM	> 100 µM	> 100 µM	> 100 µM		> 100 µM	> 100 µM	> 100 µM	> 100 µM		> 100 µM
COc1cccc2c1CCc1ccccc1CC2=O		> 100 µM		> 100 µM		> 100 µM		> 100 µM	> 100 µM	> 100 µM	> 100 µM	> 100 µM		> 100 µM	> 100 µM	> 100 µM	> 100 µM		> 100 µM
COC(=O)CCCN(C)c1n[nH]c(N)n1		> 100 µM		> 100 µM	> 100 µM	> 100 µM		> 100 µM	> 100 µM		> 100 µM	> 100 µM		> 100 µM	> 100 µM	> 100 µM	> 100 µM		> 100 µM
Cc1ccc(S(=O)(=O)N2CC3OC(C)(C)OC3C2CO)cc1 (stereo not drawn)	> 100 µM	> 100 µM	> 100 µM	> 100 µM	> 100 µM	> 100 µM	> 100 µM		> 100 µM	> 100 µM	> 100 µM	> 100 µM	> 100 µM	> 100 µM	> 100 µM	> 100 µM	> 100 µM	> 100 µM	> 100 µM
COc1ccc(C[C@@H]2Cc3cc(OC)c(OC)cc3CN2C)cc1		> 100 µM		> 100 µM	> 100 µM	> 100 µM		> 100 µM	> 100 µM	> 100 µM	> 100 µM	> 100 µM			> 100 µM	> 100 µM	> 100 µM		> 100 µM
CCOC(=O)/C(=C\c1ccc(O)c(OC)c1)C(=O)c1ccccc1		27.7 µM		> 48 µM		27.4 µM		> 51 µM	> 52.6 µM	34.8 µM	42.1 µM	32.4 µM		> 53 µM	29.8 µM	36.2 µM	36 µM		> 60.2 µM
Cc1nc2c(n1CCO)C(=O)c1ccccc1C2=O		> 100 µM		52.3 µM	74.4 µM	> 100 µM		> 100 µM	> 100 µM	53 µM		> 100 µM		> 100 µM	23.4 µM	91.8 µM	> 100 µM		> 100 µM
O=C(O)/C=C/n1c2ccccc2c(=O)c2ccccc21		> 100 µM		> 100 µM	> 100 µM	> 100 µM		> 100 µM	> 100 µM	> 100 µM	> 100 µM	> 100 µM		> 100 µM		> 100 µM	> 100 µM		> 100 µM
